# Tests used:
# [1] = tested on: S. epidermidis mature biofilm; experiment: Mature biofilm (24-hour) treatment, viable count; type: cell-based, Staphylococcus epidermidis; settings: 50 μg/ml
# Excerpt: In another experiment we let adhere 0.5×10^8 CFU/ml S. epidermidis cells for 4 hr and let the biofilm form for additional 24 hr in presence of 0.25% glucose, at this point we treated the biofilm with several concentrations of Triafluocyl for 24 hr in TSB with 0.25% glucose and determined the viable count (FIG. 7) as well as the percentage of live cells using the BacLight bacterial viability kit (Molecular Probes). For biofilm analysis, we first washed the biofilm to eliminate all planktonic bacteria and then the biofilm was detached mechanically using a scraper. To assure that the aggregates from the biofilm were completely dissociated, the suspension of cells was passed through a needle (0.5×16 mm) and a dilution was plated on TSA plates.
# [2] = tested on: S. agalactiae (ATCC 12386); experiment: MBC and MDK99.9 determination (CFU counting); type: cell-based, Streptococcus agalactiae
# Description: (§1) Further experiments were conducted using S. agalactiae (ATCC 12386), as clinically relevant Gram-positive bacterial strains in order to determine the Minimal Inhibitory Concentration (MIC) which is the minimal concentration required to prevent bacterial growth; the Minimal Bactericidal Concentration (MBC) which determines the lowest concentration at which an antimicrobial agent kill a particular microorganism and a Minimum Duration for killing 99.9% bacteria (MDK99.9) which is a tolerance metric according to the EUCAST.
# MBC and MDK99.9 determination: A single colony selected from S. agalactiae (ATCC 12386) is resuspended and cultured in the appropriate medium (TSB, or BHI) overnight (O/N) in aerobic conditions (37° C. with 220 rpm shaking), next day a 1:100 inoculum in the appropriate medium was incubated in aerobic conditions for 2 h. The culture is then challenged with triafluocyl at MIC concentration or higher concentrations. Bacterial growth was measured after different time intervals by counting the colony-forming units after plating appropriate culture dilutions on BHI agar plates. […] And the real time needed is defined as the MDK99.9. MBC for Triafluocyl against S. agalactiae (ATCC 12386) was 40 μg/ml. MDK99.9 for Triafluocyl against S. agalactiae (ATCC 12386) was 1 hour.
# S. epidermidis = experiment: Time-kill study in logarithmic phase; type: cell-based, Staphylococcus epidermidis
# Description: To evaluate Triafluocyl antibacterial effect we have tested S. epidermidis liquid growth in the presence of different Triafluocyl concentrations in logarithmic phase. […] A 1:100 inoculum in 50 ml TSB of an O/N culture of S. epidermidis was cultured for 3 hr up to its logarithmic phase (OD600=0.26 and ≈3×10^8 CFU/ml). Bacteria were split in several tubes containing different concentrations of DMSO as vehicle alone or in combination with Triafluocyl in TSB and grown for 100 min at 37° C. with 220 rpm shaking, the OD600 was measured every 20 min.
# [3] = tested on: E. faecalis VRE (ATCC BAA-2365); experiment: Killing curve (CFU counting); type: cell-based, Enterococcus faecalis; settings: Triafluocyl 20 μg/ml; Minocycline 10 μg/ml; FIG. 8C
# Description: E. faecalis VRE (ATCC BAA-2365) was grown overnight in brain heart infusion (BHI) medium, diluted 1:100 in fresh BHI, and incubated aerobically at 37° C. until bacteria growth reached a logarithmic phase (OD600=0.2-0.25).
# Triafluocyl (Cayman Chemical, Item No. 15425) (20 μg/ml), Minocycline (Sigma, 10 μg/ml) or vehicle (DMSO) was then added in 5 ml of bacteria suspensions. Bacterial growth was measured after different time intervals by counting the colony-forming units after plating appropriate culture dilutions on BHI agar plates.
# E. faecalis (ATCC 29212) = experiment: Growth kinetics in logarithmic phase (OD600 and viable count); type: cell-based, Enterococcus faecalis; settings: 30-120 min, FIG. 3
# Description: E. faecalis (ATCC 29212) was grown overnight in Brain heart infusion (BHI) medium, diluted 1:100 in fresh BHI, and incubated aerobically at 37° C. until bacteria growth reached a logarithmic phase (OD600=0.25-0.3).
# Increasing concentrations of Triafluocyl (Cayman Chemical, Item No. 15425) or DMSO as vehicle was then added in 5 ml of bacteria suspensions. Bacterial growth was measured after different time intervals (30-120 min) by spectrophotometry (OD600) and by counting the colony-forming units after plating appropriate culture dilutions on BHI agar plates.
# In FIG. 3 kinetics of E. faecalis growth in the presence of an increasing concentrations (5 μg/ml to 40 μg/ml) of Triafluocyl were measured by turbidity measurement (upper graph), and viable count (lower graph). Data represent medians±range (n=3).
# E. faecalis ATCC 29212 = experiment: MIC determination (EUCAST, Mueller-Hinton broth); type: cell-based; settings: Enterococcus faecalis, ATCC29212
# Description: as §1, with “different strains of E. faecalis,” for “S. agalactiae (ATCC 12386),”, “strains: E. faecalis vancomycin-resistant (VRE) ATCC BAA-2365, and E. faecalis ATCC 29212” for “strains”
# MIC determination: A single colony selected from the different strains of E. faecalis is resuspended and cultured in the appropriate medium overnight (O/N) in aerobic conditions (37° C. with 220 rpm shaking), next day a 1:100 inoculum in Mueller-Hinton broth (MHB) was incubated in aerobic conditions for 3 hr (OD=0.08-0.1) and an inoculum of 1:300 dilution, corresponding to 3×10^5 CFU/ml, was incubated in presence or absence of different concentrations of Triafluocyl in 1% DMSO. After O/N growth the OD of each culture was measured at 600 nm in a spectrophotometer (OD600). The MIC represents the concentration at which there is no visible growth of bacteria, i.e. ΔOD at 600 nm equal to zero (blank is the medium alone). […]
compound,measurement,setting,value
"CCCSc1nc(N[C@@H]2C[C@H]2c2ccc(F)c(F)c2)c2nnn([C@@H]3C[C@H](OCCO)[C@@H](O)[C@H]3O)c2n1 [Triafluocyl, (1S,2S,3R,5S)-3-[7-[(1R,2S)-2-(3,4-difluorophenyl)cyclopropylamino]-5-(propylthio)-3H-[1,2,3]-triazolo[4,5-d]pyrimidin-3-yl]-5-(2-hydroxyethoxy)-1,2-cyclopentanediol]",number of viable cells in the biofilm,"[1]; 24 hr treatment of 24-hour biofilm, 0.25% glucose",1.5×10^5 CFU/ml
same,reduction of viable cells in the biofilm,"[1]; 24 hr treatment, versus control",~3 log
same,MDK 99.9 Time (h) needed to kill 99.9% of the started inoculum,[2],1 h
same,MBC,"[2]; Streptococcus agalactiae, ATCC12386, cut-off 99.9% reduction in CFU",40 µg/mL
same,S. epidermidis growth (OD600),S. epidermidis; 50 μg/ml,slight bacteriostatic activity
same,number of viable cells,"S. epidermidis; 50 μg/ml, at 80 min",3×10^8 CFU/ml
same,S. epidermidis growth (OD600),"S. epidermidis; between 10 μg/ml and 20 μg/ml, compared to DMSO (0.25%), 100 min",dose-dependent inhibition
same,antibacterial effect on E. faecalis VRE (killing curve),[3],bactericidal effect
same,effect on bacterial growth (turbidity and viable count),E. faecalis (ATCC 29212); 10 μg/ml,able to inhibit bacterial growth
same,effect on bacterial growth (turbidity and viable count),E. faecalis (ATCC 29212); 20 μg/ml,potent bactericidal effects
same,effect on bacterial growth (turbidity and viable count),E. faecalis (ATCC 29212); 40 μg/ml,potent bactericidal effects
same,MIC,E. faecalis ATCC 29212,40 µg/mL

# Source: patent US10905691B2, “Use of triazolo(4,5-d)pyrimidine derivatives for prevention and treatment of bacterial infection” (Universite de Liege, priority 2016, dated 2021)
